Source: patent US20240150358A1, “PURINES AND METHODS OF THEIR USE” (Kineta, Inc., priority 2020, published 2024)
pIC50: −log10 of the molar value.

Molecular target: full-length human PIKFYVE (Homo sapiens (Human), UniProt Q9Y2I7, L932S/Q1183K/Q995L/S1033A/S696N/T998S)
Experiment: PIKfyve biochemical assay (ADP-Glo Kinase assay, Carna Biosciences)
Conditions: ADP-Glo, GST-PIKFYVE, 10 μM to 3 nM; read-out: hPIKfyve IC50
Description: (§1) PIKfyve Biochemical Assay. The biochemical PIKFyve inhibition assays were run by Carna Biosciences according to proprietary methodology based on the Promega ADP-Glo™ Kinase assay. […] GST-PIKFYVE was purified by using glutathione sepharose chromatography and used in an ADP-Glo™ Kinase assay (Promega). Reactions were set up by adding the test compound solution, substrate solution, ATP solution and kinase solution, each at 4× final concentrations. Reactions were prepared with assay buffer (50 mM MOPS, 1 mM DTT, pH7.2), mixed, and incubated in black 384 well polystyrene plates for 1 hour at room temperature. ADPGlo™ reagent was then added for 40 minutes, followed by kinase detection reagent for an additional 40 minutes. The kinase activity was evaluated by detecting relative light units on a luminescence plate reader. Samples were run in duplicate from 10 μM to 3 nM. […] IC50 values were calculated from concentration vs % inhibition curves by fitting to a four-parameter logistic curve.
as §1, with “The” for “PIKfyve Biochemical Assay. The”, “ADP-Glo™” for “ADPGlo™”, “uM” for “μM”, “curve. […]” for “curve.”

full-length human PIKFYVE, sequence (Q9Y2I7 whole entry S696N/L932S/Q995L/T998S/S1033A/Q1183K): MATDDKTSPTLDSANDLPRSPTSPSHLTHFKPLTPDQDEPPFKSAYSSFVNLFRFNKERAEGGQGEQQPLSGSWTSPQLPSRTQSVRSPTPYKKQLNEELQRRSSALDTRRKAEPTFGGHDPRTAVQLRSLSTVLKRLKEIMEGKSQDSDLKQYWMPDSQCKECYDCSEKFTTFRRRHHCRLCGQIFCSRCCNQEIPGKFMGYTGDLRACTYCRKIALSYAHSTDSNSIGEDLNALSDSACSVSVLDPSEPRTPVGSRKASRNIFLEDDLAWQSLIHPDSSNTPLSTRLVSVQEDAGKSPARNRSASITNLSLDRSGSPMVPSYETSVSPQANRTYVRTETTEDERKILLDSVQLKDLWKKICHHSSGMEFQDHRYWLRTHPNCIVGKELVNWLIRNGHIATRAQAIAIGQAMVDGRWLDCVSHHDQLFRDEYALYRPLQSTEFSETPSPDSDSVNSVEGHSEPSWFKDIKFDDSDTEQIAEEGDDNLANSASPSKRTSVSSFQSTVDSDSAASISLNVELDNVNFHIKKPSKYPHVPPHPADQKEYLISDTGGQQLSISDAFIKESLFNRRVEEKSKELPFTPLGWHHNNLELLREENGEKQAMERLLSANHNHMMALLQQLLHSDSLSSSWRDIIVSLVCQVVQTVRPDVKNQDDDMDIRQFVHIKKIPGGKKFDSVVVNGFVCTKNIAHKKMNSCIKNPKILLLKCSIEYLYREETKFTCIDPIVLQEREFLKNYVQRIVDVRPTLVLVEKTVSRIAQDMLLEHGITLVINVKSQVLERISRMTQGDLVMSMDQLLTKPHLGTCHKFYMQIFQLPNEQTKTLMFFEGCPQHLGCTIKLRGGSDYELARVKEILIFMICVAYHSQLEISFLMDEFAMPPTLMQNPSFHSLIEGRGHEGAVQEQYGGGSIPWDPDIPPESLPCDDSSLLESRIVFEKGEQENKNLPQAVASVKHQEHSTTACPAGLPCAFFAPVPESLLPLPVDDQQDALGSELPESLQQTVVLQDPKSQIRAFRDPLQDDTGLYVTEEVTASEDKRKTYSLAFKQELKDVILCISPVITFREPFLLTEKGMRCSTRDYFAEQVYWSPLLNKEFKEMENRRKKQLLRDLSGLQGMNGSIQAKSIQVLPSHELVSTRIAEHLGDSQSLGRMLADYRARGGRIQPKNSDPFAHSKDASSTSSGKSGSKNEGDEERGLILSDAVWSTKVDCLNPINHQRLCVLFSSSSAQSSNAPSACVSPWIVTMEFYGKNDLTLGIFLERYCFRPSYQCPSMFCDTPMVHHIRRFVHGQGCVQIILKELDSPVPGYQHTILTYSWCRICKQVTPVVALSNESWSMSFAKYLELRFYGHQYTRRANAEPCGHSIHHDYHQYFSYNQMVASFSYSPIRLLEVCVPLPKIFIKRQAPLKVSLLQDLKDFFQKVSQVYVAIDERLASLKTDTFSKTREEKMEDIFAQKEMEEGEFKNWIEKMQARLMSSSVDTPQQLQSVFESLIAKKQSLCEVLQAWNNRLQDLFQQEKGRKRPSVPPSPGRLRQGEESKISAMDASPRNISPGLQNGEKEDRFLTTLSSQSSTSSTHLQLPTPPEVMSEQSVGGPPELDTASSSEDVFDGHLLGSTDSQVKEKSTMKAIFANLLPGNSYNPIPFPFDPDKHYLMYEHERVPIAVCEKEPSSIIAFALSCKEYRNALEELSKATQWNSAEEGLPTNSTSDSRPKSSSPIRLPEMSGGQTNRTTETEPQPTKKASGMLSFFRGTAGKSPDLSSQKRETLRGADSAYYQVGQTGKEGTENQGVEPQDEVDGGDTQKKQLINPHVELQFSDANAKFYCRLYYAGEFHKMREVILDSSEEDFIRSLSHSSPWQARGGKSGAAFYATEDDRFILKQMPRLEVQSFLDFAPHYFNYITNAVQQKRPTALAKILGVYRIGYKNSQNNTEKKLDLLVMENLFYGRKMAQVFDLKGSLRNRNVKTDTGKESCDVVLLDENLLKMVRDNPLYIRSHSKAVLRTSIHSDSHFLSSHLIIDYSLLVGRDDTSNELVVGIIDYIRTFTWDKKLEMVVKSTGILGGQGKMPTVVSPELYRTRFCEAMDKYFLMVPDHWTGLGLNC

| SMILES | pIC50 |
| --- | --- |
| Cn1c(-c2ccncc2)nc2c(N3CCOCC3)nc(-n3ccc(-c4cncnc4)n3)nc21 [Compound 82, 4-(9-methyl-8-(pyridin-4-yl)-2-(3-(pyrimidin-5-yl)-1H-pyrazol-1-yl)-9H-purin-6-yl)morpholine] | 7.00 to 8.00 |
| Cn1c(-c2ccncc2)nc2c(N3CCOCC3)nc(-n3ccc(C4CCOCC4)n3)nc21 [Compound 25] | 6.00 to 7.00 |
| Cn1c(-c2ccncc2)nc2c(N3CCOCC3)nc(-n3ccc(C4CC5(CNC5)C4)n3)nc21 [Compound 35] | 7.00 to 8.00 |
| Cn1c(-c2ccncc2)nc2c(N3CCOCC3)nc(-c3nccc(C4CC4)n3)nc21 [Compound 103, 4-(2-(4-cyclopropylpyrimidin-2-yl)-9-methyl-8-(pyridin-4-yl)-9H-purin-6-yl)morpholine] | 7.00 to 8.00 |
| Cc1nn(-c2nc(N3CCOCC3)c3nc(-c4ccncc4)n(C)c3n2)c(=O)n1-c1ccccc1 [Compound 24] | 6.00 to 7.00 |
| FC(F)n1c(-c2ccncc2)nc2c(N3CCOCC3)nc(-c3ccnc(-c4ccccc4)n3)nc21 [Compound 105, 4-(9-(difluoromethyl)-2-(2-phenylpyrimidin-4-yl)-8-(pyridin-4-yl)-9H-purin-6-yl)morpholine] | 5.00 to 6.00 |
| Cn1c(-c2ccncc2)nc2c(N3CCOCC3)nc(-c3ccnc(C(F)(F)F)n3)nc21 [Compound 94, 4-(9-methyl-8-(pyridin-4-yl)-2-(2-(trifluoromethyl)pyrimidin-4-yl)-9H-purin-6-yl)morpholine] | 7.00 to 8.00 |
| Cc1cccc(/C=N/Nc2nc(N3CCOCC3)c3nc(-c4ccncc4)sc3n2)c1 [Compound 121] | > 8.00 |
| CN1CCCC(c2nc(-c3nc(N4CCOCC4)c4nc(-c5ccncc5)n(C)c4n3)no2)C1 (stereo not shown) [Compound 30] | 6.00 to 7.00 |
| Cn1c(-c2ccncc2)nc2c(N3CCOCC3)nc(-c3cc[nH]n3)nc21 [Compound 49] | 7.00 to 8.00 |
| CN1CC(Cc2ccn(-c3nc(N4CCOCC4)c4nc(-c5ccncc5)n(C)c4n3)n2)C1 [Compound 86, 4-(9-methyl-2-(3-((1-methylazetidin-3-yl)methyl)-1H-pyrazol-1-yl)-8-(pyridin-4-yl)-9H-purin-6-yl)morpholine] | > 8.00 |
| Cn1c(-c2ccncc2)nc2c(N3CCOCC3)nc(-c3ccc(Cl)cn3)nc21 [Compound 98, 4-(2-(5-chloropyridin-2-yl)-9-methyl-8-(pyridin-4-yl)-9H-purin-6-yl)morpholine] | 7.00 to 8.00 |
| Cn1c(-c2ccncc2)nc2c(N3CCOCC3)nc(-c3ccnc(C4CCCNC4)n3)nc21 (stereo not shown) [Compound 95, 4-(9-methyl-2-(2-(piperidin-3-yl)pyrimidin-4-yl)-8-(pyridin-4-yl)-9H-purin-6-yl)morpholine] | 6.00 to 7.00 |
| CN1Cc2ccc(-c3nc(N4CCOCC4)c4nc(-c5ccncc5)n(C)c4n3)cc2C1=O [Compound 107, 2-methyl-6-(9-methyl-6-morpholino-8-(pyridin-4-yl)-9H-purin-2-yl)isoindolin-1-one] | > 8.00 |
| COc1ccc(-c2nc(N3CCOCC3)c3nc(-c4ccncc4)n(C)c3n2)cc1OC [Compound 106, 4-(2-(3,4-dimethoxyphenyl)-9-methyl-8-(pyridin-4-yl)-9H-purin-6-yl)morpholine] | > 8.00 |
| Cn1c(-c2ccncc2)nc2c(N3CCOCC3)nc(-c3ccn(C4CCCNC4)n3)nc21 (stereo not shown) [Compound 41] | 6.00 to 7.00 |
| CC1CC(c2cccc(-c3nc(N4CCOCC4)c4nc(-c5ccncc5)n(C)c4n3)n2)CCN1 (stereo not shown) [Compound 91, 4-(9-methyl-2-(6-(2-methylpiperidin-4-yl)pyridin-2-yl)-8-(pyridin-4-yl)-9H-purin-6-yl)morpholine] | 6.00 to 7.00 |
| CN1CCCC(c2ccn(-c3nc(N4CCOCC4)c4nc(C5CCOCC5)n(C)c4n3)n2)C1 (stereo not shown) [Compound 15] | 5.00 to 6.00 |
| c1cc(-c2nc3c(N4CCOCC4)nc(-n4ccc(C5CCCNC5)n4)nc3[nH]2)ccn1 (stereo not shown) [Compound 22] | 7.00 to 8.00 |
| CN1CCC(c2nc3c(N4CCOCC4)nc(-n4ccc(-c5ccccc5)n4)nc3n2C)CC1 [Compound 9] | 6.00 to 7.00 |
| Cn1c(-c2ccncc2)nc2c(N3CCOCC3)nc(-c3ccn(C4CCCN(C(=O)OC(C)(C)C)C4)n3)nc21 (stereo not shown) [Compound 43] | 6.00 to 7.00 |
| Cn1c(-c2ccncc2)nc2c(N3CCOCC3)nc(-c3cccc(C4CCNCC4)n3)nc21 [Compound 3] | 7.00 to 8.00 |
| Cn1c(-c2ccncc2)nc2c(N3CCOCC3)nc(-n3ccc(C4CCN(C(=O)OC(C)(C)C)C4)n3)nc21 (stereo not shown) [Compound 40] | 6.00 to 7.00 |
| Cn1c(C2=CCOCC2)nc2c(N3CCOCC3)nc(-n3ccc(-c4ccccc4)n3)nc21 [Compound 14] | 7.00 to 8.00 |
| Cn1c(C2CCOCC2)nc2c(N3CCOCC3)nc(-n3ccc(-c4cccc(C#N)c4)n3)nc21 [Compound 39] | 5.00 to 6.00 |

The remaining lines, values ahead:

| pIC50 | SMILES |
| --- | --- |
| > 8.00 | Cn1c(-c2ccncc2)nc2c(N3CCOCC3)nc(C3CC3)nc21 [Compound 110, 4-(2-cyclopropyl-9-methyl-8-(pyridin-4-yl)-9H-purin-6-yl)morpholine] |
| 6.00 to 7.00 | Cn1c(-c2ccncc2)nc2c(N3CCOCC3)nc(-n3ccc(C4CCCNC4)n3)nc21 (stereo not shown) [Compound 17] |
| 7.00 to 8.00 | Cn1c(-c2ccncc2)nc2c(N3CCOCC3)nc(-n3cc(-c4ccccc4)cn3)nc21 [Compound 92, 4-(9-methyl-2-(4-phenyl-1H-pyrazol-1-yl)-8-(pyridin-4-yl)-9H-purin-6-yl)morpholine] |
| 6.00 to 7.00 | CN1CCC(c2ccn(-c3nc(N4CCOCC4)c4nc(-c5ccncc5)n(C)c4n3)n2)CC1 [Compound 18] |
| 7.00 to 8.00 | Cn1c(-c2ccncc2)nc2c(N3CCOCC3)nc(-c3cccnc3)nc21 [Compound 104, 4-(9-methyl-2-(pyridin-3-yl)-8-(pyridin-4-yl)-9H-purin-6-yl)morpholine] |
| 6.00 to 7.00 | Cn1c(-c2ccncc2)nc2c(N3CCOCC3)nc(-n3ccc(C4CCNC4)n3)nc21 (stereo not shown) [Compound 38] |
| 5.00 to 6.00 | Cn1c(C2CCOCC2)nc2c(N3CCOCC3)nc(-n3ccc(-c4cccnc4)n3)nc21 [Compound 19, 4-(9-methyl-2-(3-(pyridin-3-yl)-1H-pyrazol-1-yl)-8-(tetrahydro-2H-pyran-4-yl)-9H-purin-6-yl)morpholine] |
| 7.00 to 8.00 | Cn1c(-c2ccncc2)nc2c(N3CCOCC3)nc(NC3CCCC3)nc21 [Compound 102, N-cyclopentyl-9-methyl-6-morpholino-8-(pyridin-4-yl)-9H-purin-2-amine] |
| 6.00 to 7.00 | Cn1c(C2CCNCC2)nc2c(N3CCOCC3)nc(-n3ccc(-c4ccccc4)n3)nc21 [Compound 11] |
| 6.00 to 7.00 | Cn1c(-c2ccncc2)nc2c(N3CCOCC3)nc(-n3ccc(C4CCCN(C(=O)OC(C)(C)C)C4)n3)nc21 (stereo not shown) [Compound 29] |
| 6.00 to 7.00 | Cn1ccc(-c2nc(N3CCOCC3)c3nc(-c4ccncc4)n(C)c3n2)n1 [Compound 48] |
| 7.00 to 8.00 | Cn1c(-c2ccncc2)nc2c(N3CCOCC3)nc(-c3ccn(-c4ccccc4)n3)nc21 [Compound 46, 9-methyl-6-(morpholin-4-yl)-2-(1-phenyl-1H-pyrazol-3-yl)-8-(pyridin-4-yl)-9H-purine] |
| 7.00 to 8.00 | Cn1c(-c2ccncc2)nc2c(N3CCOCC3)nc(-c3ccnc(C4CC4)n3)nc21 [Compound 97, 4-(2-(2-cyclopropylpyrimidin-4-yl)-9-methyl-8-(pyridin-4-yl)-9H-purin-6-yl)morpholine] |
| 7.00 to 8.00 | c1ccc(-c2nccc(-c3nc(N4CCOCC4)c4nc(-c5ccncc5)sc4n3)n2)cc1 [Compound 123] |
| 7.00 to 8.00 | c1ccc(-c2nccc(-c3nc(N4CCOCC4)c4cc(-c5ccncc5)sc4n3)n2)cc1 [Compound 122] |
